How the values were obtained:
Type in all cases: in vivo
Kochia (Kochia scoparia) [1] = assay: Test A preemergence; settings: for Kochia plant response rating: 0 to 100 scale where 0 is no effect and 100 is complete control
Procedure, shortened: (§1)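 Preemergence directed soil spray on seeded pots, or postemergence application to plants 2–10 cm, one- to two-leaf. Solvent mixture non-phytotoxic, with surfactant. Scored ~10 d later, visually, 0–100 vs untreated.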

[2] = system: barnyardgrass (Echinochloa crus-galli); assay: Test A preemergence; settings: for Barnyardgrass plant response rating: 0 to 100 scale where 0 is no effect and 100 is complete control
Procedure, shortened: as §1

[3] = system: giant foxtail (Setaria faberii); assay: Test A preemergence; settings: for Foxtail, Giant plant response rating: 0 to 100 scale where 0 is no effect and 100 is complete control
Procedure, shortened: as §1

[4] = system: pigweed (Amaranthus retroflexus); assay: Test A preemergence; settings: for Pigweed plant response rating: 0 to 100 scale where 0 is no effect and 100 is complete control
[5] = system: ragweed (common ragweed, Ambrosia elatior); assay: Test A preemergence; settings: for Ragweed plant response rating: 0 to 100 scale where 0 is no effect and 100 is complete control
Procedure, shortened: as §1

[6] = system: ryegrass, Italian (Italian ryegrass, Lolium multiflorum); assay: Test A preemergence; settings: for Ryegrass, Italian plant response rating: 0 to 100 scale where 0 is no effect and 100 is complete control
Procedure, shortened: as §1

[7] = system: Galium (catchweed bedstraw, Galium aparine); assay: Test A postemergence
Procedure, shortened: as §1

Kochia (Kochia scoparia) [8] = assay: Test A postemergence
Procedure, shortened: as §1

[9] = system: barnyardgrass (Echinochloa crus-galli); assay: Test A postemergence
Procedure, shortened: as §1

[10] = system: blackgrass (Alopecurus myosuroides); assay: Test A postemergence
Procedure, shortened: as §1

corn (Zea mays) = assay: Test A postemergence
Procedure, shortened: as §1

[11] = system: giant foxtail (Setaria faberii); assay: Test A postemergence
Procedure, shortened: as §1

[12] = system: pigweed (Amaranthus retroflexus); assay: Test A postemergence
Procedure, shortened: as §1

[13] = system: ragweed (common ragweed, Ambrosia elatior); assay: Test A postemergence
Procedure, shortened: as §1

[14] = system: ryegrass, Italian (Italian ryegrass, Lolium multiflorum); assay: Test A postemergence
Procedure, shortened: as §1

[15] = system: wheat (Triticum aestivum); assay: Test A postemergence
Procedure, shortened: as §1

[16] = system: barnyardgrass (Echinochloa crus-galli); assay: Test B flooded paddy test; settings: Flood, 250 g ai/ha
Procedure, shortened: (§2)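 Greenhouse paddy pots with 2-leaf stage plants received compound by direct addition to floodwater 3 cm deep, kept at that level. Scored visually at 13–15 d versus controls (0 no effect; 100 complete control).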

[17] = system: ducksalad (Heteranthera limosa); assay: Test B flooded paddy test; settings: Flood, 250 g ai/ha
Procedure, shortened: as §2

rice (Oryra sativa) = assay: Test B flooded paddy test; settings: Flood, 250 g ai/ha
Procedure, shortened: as §2

[18] = system: sedge, umbrella (small-flower umbrella sedge, Cyperus difformis); assay: Test B flooded paddy test; settings: Flood, 250 g ai/ha
Procedure, shortened: as §2

[19] = 125 g ai/ha, preemergence, 0 to 100 scale (0 no effect, 100 complete control)
[20] = Preemergence, 500 g ai/ha, 0 is no effect, 100 is complete control
[21] = 500 g ai/ha, postemergence, 0 to 100 scale, 0 no effect, 100 complete control
[22] = Postemergence, 125 g ai/ha, visual injury, 0 to 100 scale (0 no effect, 100 complete control), approx. 10 d
[23] = 0 to 100 scale where 0 is no effect and 100 is complete control, 13 to 15 d
[24] = 500 g ai/ha, Preemergence, visual injury vs untreated controls after approximately 10 d
[25] = 125 g ai/ha, postemergence, visual injury rating after approximately 10 d
[26] = scale of 0 to 100 where 0 is no effect and 100 is complete control
[27] = 125 g ai/ha, preemergence, approx. 10 d
[28] = 125 g ai/ha, postemergence, visual injury vs untreated controls after approx. 10 d, 0 = no effect, 100 = complete control
[29] = Postemergence, 31 g ai/ha, visual injury after approx. 10 d, 0 to 100 scale, 0 no effect, 100 complete control
[30] = 0 to 100 scale where 0 is no effect and 100 is complete control

Cc1cccc(C2CNC(=O)C2C(=O)Nc2ccccc2C(F)(F)F)c1 (racemic) [Compound 374]
40: Plant response rating, Galium [7, 21] | Plant response rating, Wheat [15, 21]
0: Plant response rating, Kochia (Kochia (Kochia scoparia) [1]; [19]) | Kochia plant response rating (0 to 100 scale) (Kochia (Kochia scoparia) [1]; [20]) | Plant response rating, Pigweed [4, 19] | Pigweed plant response rating (0 to 100 scale) [4, 20] | Plant response rating, Ragweed [5, 19] | Ragweed plant response rating (0 to 100 scale) [5, 20] | Plant response rating, Ryegrass, Italian [6, 19] | Plant response rating, Galium [7, 22] | Plant response rating, Kochia (Kochia (Kochia scoparia) [8]; [21]) | Plant response rating, Kochia (Kochia (Kochia scoparia) [8]; [22]) | Plant response rating, Blackgrass [10, 22] | Plant response rating, Corn (corn (Zea mays); [22]) | Plant response rating, Pigweed [12, 21] | Plant response rating, Pigweed [12, 22] | Plant response rating, Ragweed [13, 21] | Plant response rating, Ragweed [13, 22] | Plant response rating, Ryegrass, Italian [14, 21] | Plant response rating, Ryegrass, Italian [14, 22] | Plant response rating, Wheat [15, 22] | Plant response rating, Sedge, Umbrella [18, 23]
80: Plant response rating, Barnyardgrass [9, 22]
20: Plant response rating, Corn (corn (Zea mays); [21]) | Plant response rating, Foxtail, Giant [11, 22]
50: Plant response rating, Blackgrass [10, 21] | Plant response rating, Foxtail, Giant [11, 21]
60: Plant response rating, Barnyardgrass [16, 23]
30: Ryegrass, Italian plant response rating (0 to 100 scale) [6, 20] | Plant response rating, Rice (rice (Oryra sativa); [23])
90: Plant response rating, Barnyardgrass [2, 19] | Barnyardgrass plant response rating (0 to 100 scale) [2, 20] | Plant response rating, Foxtail, Giant [3, 19] | Foxtail, Giant plant response rating (0 to 100 scale) [3, 20] | Plant response rating, Barnyardgrass [9, 21]
95: Plant response rating, Ducksalad [17, 23]

O=C1NC[C@H](c2cccc(C(F)(F)F)c2)[C@H]1C(=O)Nc1ccccc1[N+](=O)[O-] [Compound 825]
25: Rice plant response rating (rice (Oryra sativa); [26])
80: Barnyardgrass plant response rating (0 to 100 scale, 0 no effect, 100 complete control) [9, 25] | Ducksalad plant response rating [17, 26]
60: Kochia plant response rating (0 to 100 scale where 0 is no effect and 100 is complete control) (Kochia (Kochia scoparia) [1]; [24])
30: Pigweed plant response rating (0 to 100 scale where 0 is no effect and 100 is complete control) [4, 24] | Galium plant response rating (0 to 100 scale, 0 no effect, 100 complete control) [7, 25]
0: Pigweed plant response rating ([4]; 125 g ai/ha, preemergence) | Kochia plant response rating (0 to 100 scale, 0 no effect, 100 complete control) (Kochia (Kochia scoparia) [8]; [25]) | Pigweed plant response rating (0 to 100 scale, 0 no effect, 100 complete control) [12, 25] | Barnyardgrass plant response rating [16, 26] | Sedge, Umbrella plant response rating [18, 26]
70: Barnyardgrass plant response rating ([2]; 125 g ai/ha, preemergence)
90: Barnyardgrass plant response rating (0 to 100 scale where 0 is no effect and 100 is complete control) [2, 24] | Foxtail, Giant plant response rating ([3]; 125 g ai/ha, preemergence) | Foxtail, Giant plant response rating (0 to 100 scale where 0 is no effect and 100 is complete control) [3, 24] | Foxtail, Giant plant response rating (0 to 100 scale, 0 no effect, 100 complete control) [11, 25]
40: Ryegrass, Italian plant response rating (0 to 100 scale where 0 is no effect and 100 is complete control) [6, 24] | Blackgrass plant response rating (0 to 100 scale, 0 no effect, 100 complete control) [10, 25] | Wheat plant response rating (0 to 100 scale, 0 no effect, 100 complete control) [15, 25]
20: Kochia plant response rating (Kochia (Kochia scoparia) [1]; 125 g ai/ha, preemergence) | Ragweed plant response rating ([5]; 125 g ai/ha, preemergence) | Ragweed plant response rating (0 to 100 scale where 0 is no effect and 100 is complete control) [5, 24] | Ryegrass, Italian plant response rating ([6]; 125 g ai/ha, preemergence) | Corn plant response rating (0 to 100 scale, 0 no effect, 100 complete control) (corn (Zea mays); [25]) | Ragweed plant response rating (0 to 100 scale, 0 no effect, 100 complete control) [13, 25] | Ryegrass, Italian plant response rating (0 to 100 scale, 0 no effect, 100 complete control) [14, 25]

CN1C[C@@H](c2ccc([N+](=O)[O-])cc2)[C@H](C(=O)Nc2cccc(F)c2F)C1=O [Compound 1165]
0: Kochia plant response rating (Kochia (Kochia scoparia) [1]; 31 g ai/ha, Preemergence) | Ragweed plant response rating ([5]; 31 g ai/ha, Preemergence) | Ryegrass, Italian plant response rating ([6]; 31 g ai/ha, Preemergence) | Ryegrass, Italian plant response rating [6, 27] | Blackgrass plant response rating (0 to 100 scale) [10, 28] | Plant response rating, Blackgrass [10, 29] | Plant response rating, Corn (corn (Zea mays); [29]) | Ragweed plant response rating (0 to 100 scale) [13, 28] | Plant response rating, Ragweed [13, 29] | Plant response rating, Ryegrass, Italian [14, 29] | Plant response rating, Wheat [15, 29] | Sedge, Umbrella plant response rating [18, 30]
90: Barnyardgrass plant response rating [2, 27] | Foxtail, Giant plant response rating [3, 27] | Ducksalad plant response rating [17, 30]
45: Rice plant response rating (rice (Oryra sativa); [30])
10: Plant response rating, Pigweed [12, 29]
70: Kochia plant response rating (Kochia (Kochia scoparia) [1]; [27]) | Barnyardgrass plant response rating ([2]; 31 g ai/ha, Preemergence) | Foxtail, Giant plant response rating ([3]; 31 g ai/ha, Preemergence) | Foxtail, Giant plant response rating (0 to 100 scale) [11, 28] | Plant response rating, Foxtail, Giant [11, 29]
30: Ragweed plant response rating [5, 27] | Kochia plant response rating (0 to 100 scale) (Kochia (Kochia scoparia) [8]; [28]) | Plant response rating, Kochia (Kochia (Kochia scoparia) [8]; [29]) | Corn plant response rating (0 to 100 scale) (corn (Zea mays); [28]) | Pigweed plant response rating (0 to 100 scale) [12, 28] | Wheat plant response rating (0 to 100 scale) [15, 28]
40: Pigweed plant response rating ([4]; 31 g ai/ha, Preemergence) | Plant response rating, Barnyardgrass [9, 29]
80: Barnyardgrass plant response rating (0 to 100 scale) [9, 28]
60: Galium plant response rating (0 to 100 scale) [7, 28]
50: Pigweed plant response rating [4, 27]
20: Plant response rating, Galium [7, 29] | Ryegrass, Italian plant response rating (0 to 100 scale) [14, 28]
95: Barnyardgrass plant response rating [16, 30]
